Earlier results in patent US20120201867A1, “DRUG DELIVERY FROM EMBOLIC AGENTS” (priority 2004, published 2012).
Structures can show the parent of a compound that is named as a salt.

What was measured:
[1] = system: topoisomerase I purified from human and rodent tumour cell lines; details: SN-38 versus irinotecan
[2] = system: CC531-lacZ cells; details: Saenger et al.

Row | SMILES | potency relative to irinotecan as an inhibitor of topoisomerase I [1] | complete remission, share of rats [2] [%] | reduction of the mean tumour cell load [2] [%]
1 | CCc1c2c(nc3ccc(O)cc13)-c1cc3c(c(=O)n1C2)COC(=O)[C@]3(O)CC [SN-38] | approximately 1000 times | – | –
2 | CCc1c2c(nc3ccc(OC(=O)N4CCC(N5CCCCC5)CC4)cc13)-c1cc3c(c(=O)n1C2)COC(=O)[C@]3(O)CC [irinotecan, Irinotecan hydrochloride trihydrate] | – | 44 | 66
